The values below come from patent publication US8735412B2, “Sulfoximine-substituted anilinopyrimidine derivatives as CDK inhibitors, the production thereof, and use as medicine” (Bayer Intellectual Property GmbH, priority 2008, dated 2014).

One assay has as its target T1, CDK2/CycE (Homo sapiens, UniProt P24941).
T1 construct: purchased ProQinase GmbH, Freiburg; host or cells: baculovirus-infected insect cells (Sf9)
The assay is described as follows: CDK2/CycE kinase assay (Assay 2). The format is biochemical. The conditions noted are these: 0.5 μM ATP, histon IIIS substrate; read-out: CDK2/CycE (Assay 2) Concentration for 50% inhibition of enzyme activity, IC50. As for the experimental part: 10.2 Assay 2: CDK2/CycE Kinase Assay
Recombinant CDK2 and CycE-GST fusion proteins, purified from baculovirus-infected insect cells (Sf9), were purchased from ProQinase GmbH, Freiburg. Histon IIIS, used as kinase substrate, was purchased from the company Sigma. CDK2/CycE (50 ng/measuring point) was incubated for 10 min at 22° C. in the presence of various concentrations of test substances (0 μM, and within the range 0.01-100 μM) in assay buffer [50 mM Tris/HCl pH8.0, 10 mM MgCl2, 0.1 mM Na ortho-vanadate, 1.0 mM dithiothreitol, 0.5 μM adenosine triphosphate (ATP), 10 μg/measuring point histon IIIS, 0.2 μCi/measuring point ^33P-gamma ATP, 0.05% NP40, 1.25% dimethylsulfoxide]. The reaction was stopped by adding EDTA solution (250 mM, pH8.0, 15 μl/measuring point).
(§1) From each reaction mixture, 15 μl was applied to P30 filter strips (from Wallac), and unincorporated ^33P-ATP was removed by washing the filter strips three times, for 10 min each time, in 0.5% phosphoric acid. After drying the filter strips for 1 hour at 70° C., the filter strips were covered with scintillator strips (MeltiLex™ A, from Wallac) and stoved for 1 hour at 90° C. The amount of incorporated ^33P (substrate phosphorylation) was determined by scintillation measurement in a gamma-radiation measuring instrument (Wallac). The measured data were standardized to 0% inhibition (enzyme reaction without inhibitor) and 100% inhibition (all assay components except enzyme). The IC50 values were determined by means of a 4-parameter fit using the company's own software.

The next assay addresses T2, CDK1/CycB (Homo sapiens, UniProt P06493).
T2 construct: purchased ProQinase GmbH, Freiburg; host or cells: baculovirus-infected insect cells (Sf9)
The assay is described as follows: CDK1/CycB kinase assay (Assay 1). The class given is biochemical. The conditions noted are these: 0.5 μM ATP, histon IIIS substrate; read-out: CDK1/CycB (Assay 1) Concentration for 50% inhibition of enzyme activity, IC50. As for the experimental part: 10.1 Assay 1: CDK1/CycB Kinase Assay
Recombinant CDK1 and CycB-GST fusion proteins, purified from baculovirus-infected insect cells (Sf9), were purchased from ProQinase GmbH, Freiburg. The histon IIIS used as kinase substrate is commercially available from the company Sigma.
CDK1/CycB (200 ng/measuring point) was incubated for 10 min at 22° C. in the presence of various concentrations of test substances (0 μM, and within the range 0.01-100 μM) in assay buffer [50 mM Tris/HCl pH8.0, 10 mM MgCl2, 0.1 mM Na ortho-vanadate, 1.0 mM dithiothreitol, 0.5 μM adenosine triphosphate (ATP), 10 μg/measuring point histon IIIS, 0.2 μCi/measuring point ^33P-gamma ATP, 0.05% NP40, 1.25% dimethylsulfoxide]. The reaction was stopped by adding EDTA solution (250 mM, pH8.0, 15 μl/measuring point).
as §1

T2 sequence (P06493 whole entry): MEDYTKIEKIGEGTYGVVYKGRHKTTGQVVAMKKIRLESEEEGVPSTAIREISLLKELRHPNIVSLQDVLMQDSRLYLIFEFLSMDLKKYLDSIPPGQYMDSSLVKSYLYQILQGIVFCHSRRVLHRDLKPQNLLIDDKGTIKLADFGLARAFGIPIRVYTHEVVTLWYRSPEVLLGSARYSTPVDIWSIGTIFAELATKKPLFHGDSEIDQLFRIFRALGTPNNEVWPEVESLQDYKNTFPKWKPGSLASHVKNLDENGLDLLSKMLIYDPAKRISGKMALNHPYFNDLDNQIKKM
T2 sequence (P14635 whole entry partner): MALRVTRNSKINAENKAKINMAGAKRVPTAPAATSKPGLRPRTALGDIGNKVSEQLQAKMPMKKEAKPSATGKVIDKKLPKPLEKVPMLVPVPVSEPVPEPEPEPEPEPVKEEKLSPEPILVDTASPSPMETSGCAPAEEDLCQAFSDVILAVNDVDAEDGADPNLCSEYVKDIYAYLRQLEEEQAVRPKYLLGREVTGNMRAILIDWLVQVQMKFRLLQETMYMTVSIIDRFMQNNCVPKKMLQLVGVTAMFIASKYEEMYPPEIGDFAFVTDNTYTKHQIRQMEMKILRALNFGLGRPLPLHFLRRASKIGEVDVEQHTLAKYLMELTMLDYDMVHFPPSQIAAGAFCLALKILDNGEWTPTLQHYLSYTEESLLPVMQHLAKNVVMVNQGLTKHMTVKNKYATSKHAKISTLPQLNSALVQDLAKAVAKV

For `C[C@@H](O)[C@@H](C)Oc1nc(Nc2ccc(S(=N)(=O)C3CC3)cc2)ncc1Br` (single isomer, unassigned) [Example V14], the IC50 at CDK2/CycE came to 7 nM; at CDK1/CycB, 4 nM.

For `CCS(=N)(=O)c1ccc(Nc2ncc(Br)c(N[C@H](C)[C@@H](C)O)n2)cc1` (stereo partly shown) [Example V12], the IC50 at CDK2/CycE and at CDK1/CycB was 3 nM each time.
